# The source made the active and inactive calls. No cut-off for these calls is given here.
# Columns and labels:
# [1] = system: HMC1; experiment: Immunomodulatory activity in human HMC1 cells assessed as inhibition of phorbol 12-myristate 13-acetate/A23187-stimulated IL1-beta secretion treated 1 hr prior to 30 mins phorbol 12-myristate 13-acetate/A23187 challenge by Western blotting analysis; assay type: functional, cell-based
# [2] = system: HMC1; experiment: Suppression of NF-kappaB activation in human HMC1 cells assessed as inhibition of phorbol 12-myristate 13-acetate/A23187-stimulated nuclear Rel A/p65 level at 1 to 100 uM treated 1 hr prior to 2 hrs phorbol 12-myristate 13-acetate/A23187 challenge by Western blotting analysis; assay type: cell-based
# [3] = system: HMC1; experiment: Immunomodulatory activity in human HMC1 cells assessed as inhibition of phorbol 12-myristate 13-acetate/A23187-stimulated ERK phosphorylation at 1 to 100 uM treated 1 hr prior to 30 mins phorbol 12-myristate 13-acetate/A23187 challenge; assay type: functional, cell-based
# [4] = system: HMC1; experiment: Suppression of NF-kappaB activation in human HMC1 cells assessed as inhibition of phorbol 12-myristate 13-acetate/A23187-stimulated luciferase activity at 1 to 100 uM treated 1 hr prior to 24 hrs phorbol 12-myristate 13-acetate/A23187 challenge by luciferase reporter gene assay; assay type: cell-based
# [5] = system: HMC1; experiment: Immunomodulatory activity in human HMC1 cells assessed as inhibition of phorbol 12-myristate 13-acetate/A23187-stimulated caspase 1 activation at 1 to 100 uM treated 1 hr prior to 30 mins phorbol 12-myristate 13-acetate/A23187 challenge by Western blotting analysis; assay type: functional, cell-based
# [6] = system: HMC1; experiment: Suppression of NF-kappaB activation in human HMC1 cells assessed as inhibition of phorbol 12-myristate 13-acetate/A23187-stimulated IkappaB-alpha degradation at 1 to 100 uM treated 1 hr prior to 2 hrs phorbol 12-myristate 13-acetate/A23187 challenge by Western blotting analysis; assay type: cell-based
# [7] = system: HMC1; experiment: Immunomodulatory activity in human HMC1 cells assessed as inhibition of phorbol 12-myristate 13-acetate/A23187-stimulated IL-6 mRNA expression at 1 to 100 uM treated 1 hr prior to 5 hrs phorbol 12-myristate 13-acetate/A23187 challenge by RT-PCR analysis; assay type: functional, cell-based
# [8] = system: HMC1; experiment: Immunomodulatory activity in human HMC1 cells assessed as inhibition of phorbol 12-myristate 13-acetate/A23187-stimulated RIP-2 activation at 1 to 100 uM treated 1 hr prior to 30 mins phorbol 12-myristate 13-acetate/A23187 challenge by Western blotting analysis; assay type: functional, cell-based
# [9] = system: HMC1; experiment: Immunomodulatory activity in human HMC1 cells assessed as inhibition of phorbol 12-myristate 13-acetate/A23187-stimulated p38 phosphorylation at 1 to 100 uM treated 1 hr prior to 30 mic phorbol 12-myristate 13-acetate/A23187 challenge; assay type: functional, cell-based
# [10] = system: HMC1; experiment: Immunomodulatory activity in human HMC1 cells assessed as inhibition of phorbol 12-myristate 13-acetate/A23187-stimulated JNK phosphorylation at 1 to 100 uM treated 1 hr prior to 30 mic phorbol 12-myristate 13-acetate/A23187 challenge; assay type: functional, cell-based
# [11] = system: HMC1; experiment: Immunomodulatory activity in human HMC1 cells assessed as inhibition of phorbol 12-myristate 13-acetate/A23187-stimulated IL-6 secretion by ELISA method; assay type: functional, cell-based
# [12] = system: HMC1; experiment: Immunomodulatory activity in human HMC1 cells assessed as inhibition of phorbol 12-myristate 13-acetate/A23187-stimulated IL1-beta secretion at 1 to 100 uM treated 1 hr prior to 30 mins phorbol 12-myristate 13-acetate/A23187 challenge by Western blotting analysis; assay type: functional, cell-based
# [13] = system: HMC1; experiment: Immunomodulatory activity in human HMC1 cells assessed as inhibition of phorbol 12-myristate 13-acetate/A23187-stimulated histamine secretion at 100 uM treated 1 hr prior to 6 hrs phorbol 12-myristate 13-acetate/A23187 challenge by histamine assay kit; assay type: functional, cell-based
# [14] = system: HMC1; experiment: Immunomodulatory activity in human HMC1 cells assessed as inhibition of phorbol 12-myristate 13-acetate/A23187-stimulated caspase 1 activation at 1 to 100 uM treated 1 hr prior to 30 mins phorbol 12-myristate 13-acetate/A23187 challenge by caspase colorimetric assay; assay type: functional, cell-based
# [15] = Cytotoxicity against human HMC1 cells assessed as cell viability at 1 to 100 uM after 8 hrs by MTT colorimetric assay; assay type: cell-based; settings: hmc1, 8 h
SMILES,inhibition [1],inhibition [2],inhibition [3],inhibition [4],inhibition [5],inhibition [6],inhibition [7],inhibition [8],inhibition [9],inhibition [10],inhibition [11],inhibition [12],inhibition [13],inhibition [14],Activity [15]
C[C@@H]1C[C@H]2[C@@H]3CCC4=CC(=O)C=C[C@]4(C)[C@@]3(F)[C@@H](O)C[C@]2(C)[C@@]1(O)C(=O)CO,Active,–,–,–,–,–,–,–,–,–,–,–,–,–,–
C=C1CCC[C@]2(C)C[C@]3(O)OC(=O)C(C)=C3C[C@@H]12 [ATRACTYLENOLIDE III],–,Active,inactive,Active,Dose-dependent effect,Active,Active,Dose-dependent effect,Active,Active,Dose-dependent effect,Active,Active,Active,Non-toxic

# — ChEMBL document CHEMBL1687905, “Blockade of IL-6 secretion pathway by the sesquiterpenoid atractylenolide III” (J Nat Prod, 2011)
